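1) Cells in 96-well plates. 2) Compound, 48 h, 5 concentrations. 3) Linear interpolation between surrounding doses. 4) Unreached endpoint = highest concentration. At the GI50, growth is halved. TGI is the concentration that stops growth completely.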
Test system: EKVX NSCLC
Assay: growth of human tumour cells (NCI), 48 h

`Cc1ccc(/C=C/C(=O)c2sc(-c3nc(C)c(C(=O)/C=C/c4ccc(C)cc4)s3)nc2C)cc1` and `O=C1/C(=C/c2ccc(Cl)cc2)CCC1CCN1CCOCC1` (centres undefined) cannot be ordered by TGI: over 100 µM for the first, over 100 µM for the second.

First: CCC[CH2][Sn]([Cl])([CH2]CCC)[CH2]CCC
Second: O=c1ccn([C@H]2CSC[C@@H](CO)C2)c(=O)[nH]1
The TGI of the first is lower: 0.364 µM for the first, over 100 µM for the second.

Work on `C1CN2CCN3CCN4CCN1[P+]243` yielded a TGI of over 100 µM.

Molecule `CCC[CH2][Sn]([Cl])([CH2]CCC)[CH2]CCC` has a GI50 of 0.0564 µM.

Test system: NCI-H460 lung
Assay: growth of human tumour cells (NCI), 48 h

`CN(C)CC[PH+](c1ccccc1)c1ccccc1.CN(C)CC[PH+](c1ccccc1)c1ccccc1.[Cl-].[Pd+2]` and `O=C(c1ccccc1)c1cc2ccccc2o1` cannot be ordered by GI50: over 100 µM for the first, over 100 µM for the second.

Going from `COc1cc(NCc2ccc3nc(N)nc(N)c3c2C)cc(OC)c1OC` (tested in a mixture with another compound) to `COc1cc(-c2cc(-c3cc4c([nH]c5ccccc54)c(-c4cc(OC)c(OC)c(OC)c4)n3)cc(-c3ccccc3)n2)cc(OC)c1OC`, the GI50 rises from 0.000169 µM to 3.37 µM (20000-fold).

`O=C(Nc1ccncc1)C(=O)c1cn(S(=O)(=O)c2ccc(F)cc2)c2ccccc12` and `Clc1ccc2[nH]cc(-c3nnnn3-c3ccccc3)c2c1` are within 1.5-fold of each other in GI50: 16.3 µM for the first, 20.3 µM for the second.

First: C=C(C)[C@@H]1CC[C@]2(C)[C@H](CC=C3[C@@H]4CC(C)(C)CC[C@]4(C(N)=O)CC[C@]32C)[C@@]1(C)CCC#N
Second: CCCN1C(=O)N(CCC)C2C1NC(=S)N2/N=C/C=C/c1ccccc1OC (centres undefined)
The GI50 of the first is 7-fold higher: 2.93 µM for the first, 0.418 µM for the second.

Compared with `CO/N=C(\COc1ccc2c(c1)oc(=O)c1cc(OC)ccc12)c1ccc(OC)cc1`, `CCOC(=O)Nc1ccc(-c2nc(-c3cccc(OCCN4CCOCC4)c3)c(-c3ccnc(Br)c3)[nH]2)cc1` is lower in GI50: over 100 µM for the first, 3.32 µM for the second.

Compared with `O=C1C=CC(=O)c2cc3cc(CBr)ccc3cc21`, `COc1ccc2c(c1)C(=O)c1c-2c(N2CCN(C(=O)CNCCNCCO)CC2)nc2ccccc12` is 11-fold lower in GI50: 22 µM for the first, 1.94 µM for the second.

Molecule `CCC[CH2][Sn]([Cl])([CH2]CCC)[CH2]CCC` has a GI50 of 0.13 µM.

Going from `CN(C)CC[PH+](c1ccccc1)c1ccccc1.CN(C)CC[PH+](c1ccccc1)c1ccccc1.[Cl-].[Pd+2]` to `O=C(/C=C/c1cccc2ccccc12)c1ccccc1Cl`, the TGI falls from over 100 µM to 29.2 µM.

First: COc1cc(NCc2ccc3nc(N)nc(N)c3c2C)cc(OC)c1OC (tested in a mixture with another compound)
Second: COc1ccc(NC(=O)/C(Cc2cc(=O)oc3cc(O)ccc23)=N\NC(C)(C)C)c(OC)c1
The TGI of the first is lower: 34.8 µM for the first, over 100 µM for the second.

`O=C(c1ccccc1)c1cc2ccccc2o1` and `O=C(Nc1nc(=S)c2c(ncn2CCOC(=O)c2ccccc2)[nH]1)c1ccccc1` cannot be ordered by TGI: over 100 µM for the first, over 100 µM for the second.

`O=C(Nc1ccncc1)C(=O)c1cn(S(=O)(=O)c2ccc(F)cc2)c2ccccc12` and `CCOc1ccc(NC(=O)C(=O)CC(=O)c2c(C)n([O-])c3ccccc3[n+]2=O)cc1` cannot be ordered by TGI: over 100 µM for the first, over 100 µM for the second.

Going from `C=C(C)[C@@H]1CC[C@]2(C)[C@H](CC=C3[C@@H]4CC(C)(C)CC[C@]4(C(N)=O)CC[C@]32C)[C@@]1(C)CCC#N` to `OCC1OC(c2nc(C3=NCCCN3)cs2)C(O)C1O` (centres undefined), the TGI rises from 8.62 µM to over 100 µM.

`O=C(c1ccccc1Br)C(F)(F)F` and `O=C(CCc1n[nH]c(=S)o1)Nc1ccccc1C(F)(F)F` cannot be ordered by TGI: over 100 µM for the first, over 100 µM for the second.

`CO/N=C(\COc1ccc2c(c1)oc(=O)c1cc(OC)ccc12)c1ccc(OC)cc1` and `COc1ccc(CC2NCCc3c2[nH]c2ccccc32)cc1` (centres undefined) cannot be ordered by TGI: over 100 µM for the first, over 100 µM for the second.

`O=C1/C(=C/c2ccc3c(c2)OCO3)SC2C=Nc3ccccc3N12` (centres undefined) and `Clc1ccc2[nH]cc(-c3nnnn3-c3ccccc3)c2c1` cannot be ordered by TGI: over 100 µM for the first, over 100 µM for the second.

`Cc1cc(Cl)ccc1NC(=O)C(=O)Cc1nc2ccccc2o1` and `Cc1[nH]c2ccccc2c1C(=O)/C=C/c1ccccc1O` cannot be ordered by TGI: over 100 µM for the first, over 100 µM for the second.

Compared with `COc1cc(-c2cc(-c3cc4c([nH]c5ccccc54)c(-c4cc(OC)c(OC)c(OC)c4)n3)cc(-c3ccccc3)n2)cc(OC)c1OC`, `COc1cc2c(cc1OCCCNC(=O)c1cccc3c(=O)c4ccccc4[nH]c13)N=C[C@@H]1CCCN1C2=O` is 4.8-fold lower in TGI: 18.1 µM for the first, 3.76 µM for the second.

First: O=C1C=CC(=O)c2cc3cc(CBr)ccc3cc21
Second: COc1ccc2c(c1)C(=O)c1c-2c(N2CCN(C(=O)CNCCNCCO)CC2)nc2ccccc12
The TGI of the first is higher: over 80.3 µM for the first, 4.14 µM for the second.

`CCC(C)COC(=O)c1ccc(N=Cc2ccc(C=Nc3ccc(C(=O)OCC(C)CC)cc3)cc2)cc1` (centres undefined) and `Cc1ccc(/C=C/C(=O)c2sc(-c3nc(C)c(C(=O)/C=C/c4ccc(C)cc4)s3)nc2C)cc1` cannot be ordered by TGI: over 100 µM for the first, over 100 µM for the second.

`CN(C)CC1CCCC/C1=N/OC(=O)c1ccc(Cl)cc1` (centres undefined) and `O=C1/C(=C/c2ccc(Cl)cc2)CCC1CCN1CCOCC1` (centres undefined) cannot be ordered by TGI: over 100 µM for the first, over 100 µM for the second.

First: N#CC(C(=O)C(=O)C(C#N)c1ccc(Br)cc1)c1ccc(Br)cc1 (centres undefined)
Second: CCOc1ccc(NC(=O)CC#N)cc1
The TGI of the first is lower: 30.5 µM for the first, over 100 µM for the second.

First: COc1cccc(C2=NC(C(C)C)CO2)c1 (centres undefined)
Second: CCCN1C(=O)N(CCC)C2C1NC(=S)N2/N=C/C=C/c1ccccc1OC (centres undefined)
The TGI of the first is higher: over 100 µM for the first, 16.5 µM for the second.

`CCOC(=O)C(=[N+]=[N-])[Si](C)(C)C` and `Cc1ccc(NC(=O)CCc2cc(C(C)(C)C)nc(=S)[nH]2)cc1C` cannot be ordered by TGI: over 100 µM for the first, over 100 µM for the second.

`CCOC(=O)Nc1ccc(-c2nc(-c3cccc(OCCN4CCOCC4)c3)c(-c3ccnc(Br)c3)[nH]2)cc1` and `CCCc1nc(NC#N)nc(C(=O)Nc2ccccc2)c1CC` cannot be ordered by TGI: over 100 µM for the first, over 100 µM for the second.

`CCC[CH2][Sn]([Cl])([CH2]CCC)[CH2]CCC` showed a TGI of 0.298 µM.

Reference: PubChem BioAssay (NCI)
